Data from the supplement of paper PMC10307832.

Experiments:
Experiment in all cases: relative viability (nuclei count vs DMSO), 5 days (fraction); higher = more cells survive
[1] = compound: CN(C)C/C=C/C(=O)Nc1cc2c(Nc3ccc(F)c(Cl)c3)ncnc2cc1O[C@H]1CCOC1 [Afatinib] + COc1cccc2cc(-c3nc([C@H]4CC[C@H](C(=O)O)CC4)n4ncnc(N)c34)[nH]c12 [OSI-027] (partner 0.5 µM)
Procedure, shortened: (§1)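 Relative viability equals treated-well nuclei counts divided by vehicle-well nuclei counts. Counts came from 4× images of lung cancer cell lines grown in 1536-well plates for 5 days after pin-tool dosing on the day after seeding. Dosing used one drug alone or a fixed anchor-drug dose plus five library-drug doses (not always all listed) in √10 steps, and values are medians of duplicate plates.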

[2] = compound: CN(C)C/C=C/C(=O)Nc1cc2c(Nc3ccc(F)c(Cl)c3)ncnc2cc1O[C@H]1CCOC1 [Afatinib] + CS(=O)(=O)CCNCc1ccc(-c2ccc3ncnc(Nc4ccc(OCc5cccc(F)c5)c(Cl)c4)c3c2)o1 [Lapatinib] (partner 2 µM)
Procedure, shortened: as §1

[3] = compound: CN(C)C/C=C/C(=O)Nc1cc2c(Nc3ccc(F)c(Cl)c3)ncnc2cc1O[C@H]1CCOC1 [Afatinib] + C[C@]1(O)C[C@@H](c2nc(-c3ccc4ccc(-c5ccccc5)nc4c3)c3c(N)nccn32)C1 [Linsitinib] (partner 1 µM)
Procedure, shortened: as §1

[4] = compound: CN(C)C/C=C/C(=O)Nc1cc2c(Nc3ccc(F)c(Cl)c3)ncnc2cc1O[C@H]1CCOC1 [Afatinib] + Cc1nc(NC(=O)N2CCC[C@H]2C(N)=O)sc1-c1ccnc(C(C)(C)C(F)(F)F)c1 [Alpelisib] (partner 2 µM)
Procedure, shortened: as §1

Row | Cell Line | relative viability ([1]; first compound 0.005 µM) | relative viability ([1]; first compound 0.01581 µM) | relative viability ([1]; first compound 0.05 µM) | relative viability ([1]; first compound 0.1581 µM) | relative viability ([1]; first compound 0.5 µM) | relative viability ([2]; first compound 0.005 µM) | relative viability ([2]; first compound 0.01581 µM) | relative viability ([2]; first compound 0.05 µM) | relative viability ([2]; first compound 0.1581 µM) | relative viability ([2]; first compound 0.5 µM) | relative viability ([3]; first compound 0.005 µM) | relative viability ([3]; first compound 0.01581 µM) | relative viability ([3]; first compound 0.05 µM) | relative viability ([3]; first compound 0.1581 µM) | relative viability ([3]; first compound 0.5 µM) | relative viability ([4]; first compound 0.005 µM) | relative viability ([4]; first compound 0.01581 µM) | relative viability ([4]; first compound 0.05 µM) | relative viability ([4]; first compound 0.1581 µM) | relative viability ([4]; first compound 0.5 µM)
1 | NCI-H2347 | 0.403 | 0.46 | 0.393 | 0.364 | 0.373 | 0.934 | 0.985 | 0.832 | 0.987 | 0.996 | 1.04 | 0.933 | 1.03 | 1.08 | 1.03 | 1.11 | 0.979 | 1.1 | 1.1 | 0.889
2 | NCI-H2405 | 0.65 | 0.67 | 0.712 | 0.603 | 0.701 | 1.11 | 1.09 | 1.33 | 1.04 | 1.07 | 0.808 | 0.875 | 0.963 | 0.836 | 0.906 | 0.703 | 0.804 | 0.875 | 0.708 | 0.913
3 | NCI-H3122 | 1.03 | 0.922 | 0.977 | 0.951 | 0.881 | 1.03 | 1.02 | 1.05 | 0.992 | 1.04 | 1.02 | 1.02 | 0.963 | 0.822 | 1.08 | 0.81 | 0.685 | 0.716 | 0.738 | 0.705
4 | PC-3 [JPC-3] | 0.257 | 0.271 | 0.23 | 0.182 | 0.238 | 0.445 | 0.425 | 0.428 | 0.472 | 0.416 | 0.593 | 0.451 | 0.439 | 0.461 | 0.392 | 0.49 | 0.392 | 0.377 | 0.362 | 0.354
5 | PC-14 | 0.103 | 0.104 | 0.136 | 0.131 | 0.0975 | 0.295 | 0.222 | 0.258 | 0.301 | 0.288 | 0.271 | 0.255 | 0.176 | 0.237 | 0.23 | 0.169 | 0.15 | 0.137 | 0.127 | 0.163
6 | RERF-LC-KJ | 0.527 | 0.439 | 0.448 | 0.336 | 0.318 | 0.83 | 0.919 | 0.849 | 0.834 | 0.83 | 0.888 | 0.9 | 0.76 | 0.656 | 0.716 | 0.784 | 0.636 | 0.601 | 0.572 | 0.502
7 | SK-LU-1 | 0.389 | 0.415 | 0.327 | 0.318 | 0.352 | 1.33 | 0.89 | 0.803 | 0.941 | 0.915 | 1.39 | 1.11 | 1.2 | 1.02 | 1.01 | 1.38 | 0.918 | 1.06 | 1.1 | 0.913
8 | SK-MES-1 | 0.36 | 0.405 | 0.307 | 0.265 | 0.26 | 0.423 | 0.393 | 0.459 | 0.444 | 0.467 | 1 | 0.975 | 0.543 | 0.406 | 0.429 | 0.823 | 0.653 | 0.396 | 0.309 | 0.32
9 | SW 1573 | 0.607 | 0.516 | 0.644 | 0.541 | 0.618 | 1.03 | 1.09 | 1.14 | 1.07 | 1.27 | 0.773 | 0.865 | 0.649 | 0.731 | 0.703 | 0.778 | 0.805 | 0.805 | 0.811 | 0.668
10 | UMC-11 | 0.469 | 0.427 | 0.462 | 0.46 | 0.456 | 1.07 | 0.919 | 0.846 | 0.802 | 1 | 0.996 | 0.973 | 1.04 | 0.97 | 1.04 | 1 | 1.03 | 0.953 | 0.963 | 1.13
